{"source": "patent US20090196863A1", "about": "“METHOD OF ANTIOXIDATION AND ANTIOXIDANT-FUNCTIONING WATER” (MIZ CO., LTD., priority 2001, published 2009)", "origin": "cited, not measured here", "settings": "normal temperature (20° C.) and atmospheric pressure"}
{"compound": "[HH]", "note": "[molecular hydrogen]", "values": [{"measurement": "saturated solvent concentration", "value": "approximately 1.6 mg/L"}]}
